Assay results taken from PubChem BioAssay (NCI).
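Five compound concentrations were applied to cells in 96-well plates for 48 hours; endpoints were derived by simple linear interpolation of the resulting dose-response curve. Here, GI50 denotes the concentration required for 50% inhibition of growth. The concentration for full growth arrest is given as TGI.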

Tests used:
Assay in all cases: NCI anticancer screen, dose series, 48 h
786-0 renal = test system: 786-0 renal
A498 renal = test system: A498 renal
A549 NSCLC = test system: A549 NSCLC
ACHN renal = test system: ACHN renal
BT-549 breast = test system: BT-549 breast
CCRF-CEM leukemia = test system: CCRF-CEM leukemia
COLO 205 colon = test system: COLO 205 colon
EKVX NSCLC = test system: EKVX NSCLC
HCC-2998 colon = test system: HCC-2998 colon
HCT-116 colon = test system: HCT-116 colon
HCT-15 colon = test system: HCT-15 colon
HL-60(TB) leukemia = test system: HL-60(TB) leukemia
HOP-62 NSCLC = test system: HOP-62 NSCLC
HOP-92 NSCLC = test system: HOP-92 NSCLC
HS 578T breast = test system: HS 578T breast
HT29 colon = test system: HT29 colon
IGROV1 ovarian = test system: IGROV1 ovarian
K-562 leukemia = test system: K-562 leukemia
KM12 colon = test system: KM12 colon
LOX IMVI melanoma = test system: LOX IMVI melanoma
M14 melanoma = test system: M14 melanoma
MALME-3M melanoma = test system: MALME-3M melanoma
MCF7 breast = test system: MCF7 breast
MDA-MB-231 breast = test system: MDA-MB-231 breast
MDA-MB-435 = test system: MDA-MB-435
MOLT-4 leukemia = test system: MOLT-4 leukemia
NCI-H226 lung = test system: NCI-H226 lung
NCI-H23 lung = test system: NCI-H23 lung
NCI-H460 lung = test system: NCI-H460 lung
NCI-H522 lung = test system: NCI-H522 lung
NCI/ADR-RES ovarian = test system: NCI/ADR-RES ovarian
OVCAR-3 ovarian = test system: OVCAR-3 ovarian
OVCAR-4 ovarian = test system: OVCAR-4 ovarian
OVCAR-5 ovarian = test system: OVCAR-5 ovarian
OVCAR-8 ovarian = test system: OVCAR-8 ovarian
PC-3 prostate = test system: PC-3 prostate
RPMI-8226 leukemia = test system: RPMI-8226 leukemia
RXF 393 renal = test system: RXF 393 renal
SF-268 CNS = test system: SF-268 CNS
SF-295 CNS = test system: SF-295 CNS
SF-539 CNS = test system: SF-539 CNS
SK-MEL-2 melanoma = test system: SK-MEL-2 melanoma
SK-MEL-28 melanoma = test system: SK-MEL-28 melanoma
SK-MEL-5 melanoma = test system: SK-MEL-5 melanoma
SK-OV-3 ovarian = test system: SK-OV-3 ovarian
SN12C renal = test system: SN12C renal
SNB-19 CNS = test system: SNB-19 CNS
SNB-75 CNS = test system: SNB-75 CNS
SR leukemia = test system: SR leukemia
SW-620 colon = test system: SW-620 colon
T-47D breast = test system: T-47D breast
TK-10 renal = test system: TK-10 renal
U251 CNS = test system: U251 CNS
UACC-257 melanoma = test system: UACC-257 melanoma
UACC-62 melanoma = test system: UACC-62 melanoma
UO-31 renal = test system: UO-31 renal

## CC(C)C[C@H]1C(=O)O[C@H](C(C)C)C(=O)N(C)[C@@H](C(C)C)C(=O)O[C@H](C(C)C)C(=O)N(C)[C@@H](C(C)C)C(=O)O[C@H](C(C)C)C(=O)N1C
786-0 renal
  GI50: 3.71 µM
  TGI: > 10 µM
A498 renal
  GI50: 1.72 µM
  TGI: 6.4 µM
A549 NSCLC
  GI50: 3.44 µM
  TGI: > 10 µM
ACHN renal
  GI50: 2.6 µM
  TGI: 8.83 µM
BT-549 breast
  GI50: 3.43 µM
  TGI: > 10 µM
CCRF-CEM leukemia
  GI50: 3.5 µM
  TGI: > 10 µM
COLO 205 colon
  GI50: 1.64 µM
  TGI: 3.29 µM
EKVX NSCLC
  GI50: 3.1 µM
  TGI: > 10 µM
HCC-2998 colon
  GI50: 3.9 µM
  TGI: > 10 µM
HCT-116 colon
  GI50: 3.18 µM
  TGI: > 10 µM
HCT-15 colon
  GI50: 3.05 µM
  TGI: > 10 µM
HL-60(TB) leukemia
  GI50: 2.32 µM
  TGI: 5.23 µM
HOP-62 NSCLC
  GI50: 2.82 µM
  TGI: > 10 µM
HOP-92 NSCLC
  GI50: 1.7 µM
  TGI: 5.51 µM
HS 578T breast
  GI50: 4.1 µM
  TGI: > 10 µM
HT29 colon
  GI50: 3.4 µM
  TGI: > 10 µM
IGROV1 ovarian
  GI50: 4.46 µM
  TGI: > 10 µM
K-562 leukemia
  GI50: 3.7 µM
  TGI: > 10 µM
KM12 colon
  GI50: 3.25 µM
  TGI: > 10 µM
LOX IMVI melanoma
  GI50: 3.19 µM
  TGI: > 10 µM
M14 melanoma
  GI50: 3.65 µM
  TGI: > 10 µM
MALME-3M melanoma
  GI50: 2.06 µM
  TGI: 8.67 µM
MCF7 breast
  GI50: 2.82 µM
  TGI: > 10 µM
MDA-MB-231 breast
  GI50: 2.65 µM
  TGI: 8.22 µM
MDA-MB-435
  GI50: 3.46 µM
  TGI: > 10 µM
MOLT-4 leukemia
  GI50: 3.27 µM
  TGI: > 10 µM
NCI-H226 lung
  GI50: 4.01 µM
  TGI: > 10 µM
NCI-H23 lung
  GI50: 3.19 µM
  TGI: > 10 µM
NCI-H460 lung
  GI50: 3.14 µM
  TGI: > 10 µM
NCI-H522 lung
  GI50: 2.61 µM
  TGI: > 10 µM
NCI/ADR-RES ovarian
  GI50: 2.9 µM
  TGI: > 10 µM
OVCAR-3 ovarian
  GI50: 2.4 µM
  TGI: > 10 µM
OVCAR-4 ovarian
  GI50: 2.37 µM
  TGI: > 10 µM
OVCAR-5 ovarian
  GI50: 2.88 µM
  TGI: > 10 µM
OVCAR-8 ovarian
  GI50: 3.17 µM
  TGI: > 10 µM
PC-3 prostate
  GI50: 3.15 µM
  TGI: > 10 µM
RPMI-8226 leukemia
  GI50: 1.53 µM
  TGI: 5.56 µM
RXF 393 renal
  GI50: 3.33 µM
  TGI: > 10 µM
SF-268 CNS
  GI50: 3.71 µM
  TGI: > 10 µM
SF-295 CNS
  GI50: 2.72 µM
  TGI: > 10 µM
SF-539 CNS
  GI50: 3.2 µM
  TGI: > 10 µM
SK-MEL-2 melanoma
  GI50: 3.04 µM
  TGI: > 10 µM
SK-MEL-28 melanoma
  GI50: 4.23 µM
  TGI: > 10 µM
SK-MEL-5 melanoma
  GI50: 1.87 µM
  TGI: 4.05 µM
SK-OV-3 ovarian
  GI50: 2.21 µM
  TGI: 6.05 µM
SN12C renal
  GI50: 3.09 µM
  TGI: > 10 µM
SNB-19 CNS
  GI50: 3.4 µM
  TGI: > 10 µM
SNB-75 CNS
  GI50: 2.25 µM
  TGI: > 10 µM
SR leukemia
  GI50: 3.65 µM
  TGI: > 10 µM
SW-620 colon
  GI50: 3.38 µM
  TGI: > 10 µM
T-47D breast
  GI50: 2.65 µM
  TGI: 8.43 µM
TK-10 renal
  GI50: 3.27 µM
  TGI: > 10 µM
U251 CNS
  GI50: 3.51 µM
  TGI: > 10 µM
UACC-257 melanoma
  GI50: 2.62 µM
  TGI: 8.49 µM
UACC-62 melanoma
  GI50: 3.47 µM
  TGI: > 10 µM
UO-31 renal
  GI50: 1.81 µM
  TGI: 7.69 µM
